{
  "source": "patent US20140099634A1",
  "about": "“USE OF PRE-MRNA SPLICING IN PLATELET CELLS FOR THE DIAGNOSIS OF DISEASE” (priority 2007, published 2014)",
  "key": {"[1]": {"system": "TF pre-mRNA splicing in platelets", "assay": "TF pre-mRNA splicing in platelets (PCR)", "assay_type": "cell-based, human", "conditions": "for pre-mRNA splicing events in platelets: commonly used medications in patients", "text": "TF pre-mRNA splicing may be measured by any method known in the art, including, but not limited to, PCR using primers that target sequences in exon four (5′-[…]-3′; SEQ ID NO: 1) and five (5′-[…]-3′; SEQ ID NO: 2), and thus span intron four^3. Likewise, detection of full-length mature mRNA for human TF (mHTF) in platelets may be measured using any method known in the art, including, but not limited to, using primers targeting sequences in exon one (5′-[…]-3′; SEQ ID NO: 3) and exon six (5′-[…]-3′; SEQ ID NO: 4). In light of the disclosure herein, a person of ordinary skill in the art may select and use alternative primers based on the sequence of the gene/RNA^54. Primer design may be aided by the use of available computer programs, such as OLIGO™ (available from Hitachi Software), Primer3 (available online from the University of Massachusetts Medical School), GeneFisher (available online from the Universitat Bielefeld, Germany), or OligoAnalyzer (available from Integrated DNA Technologies, Inc.).\nPlatelets were isolated from each patient within 48 hours of admission to the ICU and TF mRNA expression patterns were characterized in each patient. In addition, clinical data for each patient including age and gender, admission diagnoses, APACHE II score, laboratory and microbiology results, and mortality were also collected. When feasible, platelets were also isolated from blood that was obtained on days three, five, and ten. The blood samples were processed immediately. Pre-mRNA splicing was also evaluated in platelets isolated from healthy volunteers (age 18-50) that were not taking medications. Platelets isolated from patients with sepsis and routine healthy control donors were processed in parallel.\nPlatelets from healthy subjects were left quiescent or activated with α-toxin (10 ng/ml; List Biological Laboratories Inc.) or lipopolysaccharide (LPS; 100 ng/ml; Sigma), toxins produced by gram-positive Staph. aureus and gram-negative E. Coli, respectively. Platelets were kept quiescent or activated in suspension with MRSA or E. coli at a bacteria to platelet ratio of 1:10. The bacteria were obtained from blood cultures from sepsis patients by ARUP, a national reference laboratory under standard conditions. For these studies, the bacteria were swiped from the culture plate, re-suspended, and the desired concentration was adjusted against a standard solution using a colorimeter (Vitek Colorimeter, bioMéreux, Inc.)."}, "[2]": {"system": "PKC", "conditions": "concentrations up to 1 μM; cited from earlier work"}, "[3]": {"system": "platelets", "assay": "Plasma clot formation by activated platelets or their membranes", "assay_type": "cell-based, human", "conditions": "platelets activated with thrombin for 2 hours, FIG. 5"}, "[4]": {"system": "platelets", "conditions": "cited from earlier work"}, "[5]": {"system": "PKA", "conditions": "concentrations up to 1 μM; cited from earlier work"}, "[6]": {"molecular_target": "SRPK2 (Homo sapiens, UniProt P78362)", "sequence (P78362 whole entry, species assumed)": "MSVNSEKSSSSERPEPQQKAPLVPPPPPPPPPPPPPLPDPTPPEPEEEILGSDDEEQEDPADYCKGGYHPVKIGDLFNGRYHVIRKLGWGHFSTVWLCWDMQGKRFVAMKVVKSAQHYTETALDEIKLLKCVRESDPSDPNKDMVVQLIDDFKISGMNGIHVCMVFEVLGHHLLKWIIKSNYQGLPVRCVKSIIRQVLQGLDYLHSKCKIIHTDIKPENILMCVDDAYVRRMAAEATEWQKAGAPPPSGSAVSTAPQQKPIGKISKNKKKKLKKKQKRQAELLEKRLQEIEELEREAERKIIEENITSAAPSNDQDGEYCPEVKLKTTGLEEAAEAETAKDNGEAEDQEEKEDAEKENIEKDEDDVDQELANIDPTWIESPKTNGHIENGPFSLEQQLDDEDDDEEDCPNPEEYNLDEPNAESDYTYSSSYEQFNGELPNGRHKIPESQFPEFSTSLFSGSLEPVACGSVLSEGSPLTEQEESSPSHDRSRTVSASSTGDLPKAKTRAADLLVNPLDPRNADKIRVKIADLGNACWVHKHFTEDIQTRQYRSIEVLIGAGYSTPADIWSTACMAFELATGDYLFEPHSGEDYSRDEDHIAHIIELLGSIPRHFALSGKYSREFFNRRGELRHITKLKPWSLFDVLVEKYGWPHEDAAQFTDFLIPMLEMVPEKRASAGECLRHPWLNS", "conditions": "concentrations up to 1 μM; cited from earlier work"}, "[7]": {"molecular_target": "SRPK1 (Homo sapiens, UniProt Q96SB4)", "sequence (Q96SB4 whole entry, species assumed)": "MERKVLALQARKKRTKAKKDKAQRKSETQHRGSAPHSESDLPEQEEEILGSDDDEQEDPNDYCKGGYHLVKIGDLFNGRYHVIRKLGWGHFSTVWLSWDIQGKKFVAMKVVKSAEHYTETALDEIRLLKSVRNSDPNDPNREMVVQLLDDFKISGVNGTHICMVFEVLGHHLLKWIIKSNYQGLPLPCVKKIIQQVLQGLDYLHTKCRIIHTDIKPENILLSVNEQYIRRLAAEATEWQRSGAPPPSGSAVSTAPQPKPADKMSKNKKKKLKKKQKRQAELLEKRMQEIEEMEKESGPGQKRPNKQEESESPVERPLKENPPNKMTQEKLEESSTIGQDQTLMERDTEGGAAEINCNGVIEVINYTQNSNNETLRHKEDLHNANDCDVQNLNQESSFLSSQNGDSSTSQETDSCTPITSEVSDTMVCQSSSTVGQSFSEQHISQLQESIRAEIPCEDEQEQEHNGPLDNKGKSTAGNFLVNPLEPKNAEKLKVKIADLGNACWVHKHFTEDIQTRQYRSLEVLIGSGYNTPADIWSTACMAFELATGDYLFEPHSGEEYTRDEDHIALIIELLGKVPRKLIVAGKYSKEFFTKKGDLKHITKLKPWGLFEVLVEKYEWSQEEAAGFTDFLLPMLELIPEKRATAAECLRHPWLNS", "conditions": "concentrations up to 1 μM; cited from earlier work"}},
  "data": [
    {"compound": "CC(=O)Oc1ccccc1C(=O)O", "note": "[Aspirin]", "values": [
      {"measurement": "pre-mRNA splicing events in platelets", "setting": "[1]", "value": "do not affect"},
      {"measurement": "signal-dependent TF pre-mRNA splicing", "setting": "[1]; platelets of elderly subject taking aspirin 325 mg daily, thrombin 0.05 U/ml for 1 hour, FIG. 2", "value": "does not block"}
    ]},
    {"compound": "CC(=O)CC(c1ccccc1)c1c(O)c2ccccc2oc1=O", "note": "(stereo not drawn) [warfarin]", "values": [
      {"measurement": "pre-mRNA splicing events in platelets", "setting": "[1]", "value": "do not affect"}
    ]},
    {"compound": "heparin", "values": [
      {"measurement": "TF pre-mRNA splicing", "setting": "[1]; platelets of septic patients who received heparin to prevent VTE", "value": "does not block"}
    ]},
    {"compound": "lipopolysaccharide [LPS]", "values": [
      {"measurement": "induction of TF pre-mRNA splicing", "setting": "[1]; platelets from healthy volunteers, 2 hours, FIGS. 11 and 12", "value": "induced TF pre-mRNA splicing"}
    ]},
    {"compound": "CCN1/C(=C/C(C)=O)Sc2ccc(OC)cc21", "note": "[Tg003, (Z)-1-(3-Ethyl-5-methoxy-2,3-dihydrobenzothiazol-2-ylidene)propan-2-one]", "values": [
      {"measurement": "effect on PKC activity", "setting": "[2]", "value": "does not affect"},
      {"measurement": "plasma clot formation", "setting": "[3]", "value": "reduces clot formation"},
      {"measurement": "platelet adhesion, spreading, and aggregation", "setting": "[4]", "value": "does not alter"},
      {"measurement": "effect on PKA activity", "setting": "[5]", "value": "does not affect"},
      {"measurement": "effect on SRPK2 activity", "setting": "[6]", "value": "does not affect"},
      {"measurement": "pre-mRNA splicing", "setting": "[1]; platelets activated with thrombin, FIG. 5", "value": "blocks pre-mRNA splicing"},
      {"measurement": "effect on SRPK1 activity", "setting": "[7]", "value": "does not affect"}
    ]}
  ]
}
